Laboratory results taken from US20130165368A1, “ANTIMICROBIAL COMPOUNDS” (priority 2010, published 2013).
≈ marks a conversion by molar mass, not a printed value. Read-outs that look alike come from different tables or passages of the source.

Experiments:
Format in all cases: cell-based
Candida glabrata = test: MIC agar dilution, micro-organism 20 (3943); settings: Candida glabrata 3943
Procedure, shortened: (§1)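 Agar dilution in Isosensitest/CCEY agar with egg yolk and lysed horse blood; compounds as aqueous emulsions (myristyl and lauryl alcohol with 1-methyl-2-pyrrolidone and Tween 20). 1 µL spots of 1/15-diluted 0.5 McFarland suspensions, 37 °C aerobic, read at 22 and 48 h; MIC (mmol/L) is lowest concentration giving <10 colonies.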

Enterococcus faecium = test: MIC agar dilution, micro-organism 16 (7171); settings: Enterococcus faecium 7171
Procedure, shortened: as §1

[1] = test system: Staphylococcus epidermidis; test: MIC agar dilution, micro-organism 14 (11047); settings: Staphylococcus epidermidis 11047
Procedure, shortened: as §1

Enterococcus faecalis = test: MIC agar dilution, micro-organism 17 (775); settings: Enterococcus faecalis 775
Procedure, shortened: as §1

[2] = test system: MRSA GER 1966/97 (Hanover IIIc); test: MIC agar dilution, MRSA strain 36; settings: Staphylococcus aureus
Method: (§2) Molar equivalent concentrations were used to allow comparison between compounds of differing molecular mass. Due to weighing difficulties, any compound in solid form was melted in a water bath prior to dilution. To make ten-times strength concentrations, which takes into account agar dilution, 0.0352 mmol of each compound was weighed into plastic universal bottles and 4 mL of sterile distilled water (SDW) was added. To produce a homogenous emulsion the universals were vortexed; once achieved the emulsions were serial diluted by adding 2 mL to 2 mL of SDW.
(§3) For every 100 mL of Isosensitest agar (IST) (CM0471; Oxoid, Basingstoke, England), 3.1 g of the IST powder was added to 100 mL SDW (as per manufacturer's instructions) and sterilised for 15 minutes at 121° C. Once sterilised, the molten agar was cooled to 50° C. in a water-bath. Subsequently 4.8 g of CCEY powder (BC2160; Bioconnections, Wetherby, England), also known as Brazier's medium, was added to 100 mL SDW for every 100 mL of agar needed. This was then sterilised for 15 minutes at 121° C. Once sterilised the molten agar was cooled to 50° C. in a water-bath and 4 mL of egg-yolk emulsion (S2073; TCS Biosciences Ltd, Buckingham, United Kingdom) and 1 mL of lysed defibrinated horse blood (HB035; TCS Biosciences Ltd, Buckingham, United Kingdom) were also added for every 100 mL needed. Horse blood lysis is achieved by dilution to half concentration with SDW; when fully lysed the mixture will turn dark red in colour.
(§4) 18 mL agar was added to each universal and then poured into sterile Petri dishes. This step creates a 1/10 dilution resulting in agar plates of the required strength. Control plates for each set of strains were created by adding 18 mL of agar to 2 mL of SDW.
(§5) Suspensions of each bacterial species were prepared with a density equal to that of a 0.5 McFarland standard using a densitometer. All suspensions were made using sterile distilled water and fresh 18-20 hour cultures. As a 0.5 McFarland standard contains 1.5×10^8 CFU/mL and the multipoint inoculators applies 1 μL spots of liquid, each bacterial suspension was diluted 1/15 (20 μL suspension to 280 μL sterile distilled water).
(§6) Bacterial suspensions were prepared from fresh 18-24 hour cultures as previously described. 1 μL of each strain was inoculated onto all 100 agar plates containing a different chemical concentration and the 2 control plates. This was done using a multipoint inoculator which inoculates 20 strains per plate. All plates were incubated for 22 hours at 37° C. in aerobic conditions.
(§7) Each plate was examined for bacterial growth after 22 and 48 hours, with each being incubated in between examinations. A positive result was recorded as growth of ≧10 colonies. A negative result was recorded as growth of <10 colonies as this is equivalent to 99.9% inhibition. The lowest concentration of chemical that inhibited growth was recorded as the MIC. The results are recorded in Table IV below, where the numbers are quoted in mmol/L.
(§8) Given the positive performance of the ethoxylates of lauryl alcohol in reducing the MIC for a number of the micro-organisms tested, further MIC testing of Laureth-1 [C12E1] through to Laureth-8 [C12E8] was conducted on each of the following: • 10 strains of vancomycin-resistant enterococci (VRE)—listed in Table V below; and • 20 strains of methicillin-resistant Staphylococcus aureus (MRSA)—listed in Table VI.
(§9) The alkanol, alkanol derivatives, agar plates, and inocula were all prepared in the same way as described above.
(§10) The plates were examined in the same manner as described above and the results are recorded in Table VII below, where the numbers are quoted in mmol/L.

[3] = test system: MRSA GER 131/98 (Sger Iidc); test: MIC agar dilution, MRSA strain 35; settings: Staphylococcus aureus
Method: as §2, §3, §4, §5, §6, §7, §8, §9, §10

[4] = test system: Enterococcus casseliflavus (VRE) Clin waste; test: MIC agar dilution, VRE strain 23
Method: as §2, §3, §4, §5, §6, §7, §8, §9, §10

[5] = test system: Enterococcus faecalis (VRE) PHLS URINE 2000; test: MIC agar dilution, VRE strain 21
Method: as §2, §3, §4, §5, §6, §7, §8, §9, §10

[6] = test system: Enterococcus faecium (VRE) MB310; test: MIC agar dilution, VRE strain 29
Method: as §2, §3, §4, §5, §6, §7, §8, §9, §10

MRSA EMRSA 15 1729/98 = test: MIC agar dilution, MRSA strain 42; settings: Staphylococcus aureus
Method: as §2, §3, §4, §5, §6, §7, §8, §9, §10

MRSA NCTC 11939 = test: MIC agar dilution, MRSA strain 50; settings: Staphylococcus aureus, MRSA strain 50 NCTC 11939
Method: as §2, §3, §4, §5, §6, §7, §8, §9, §10

MRSA FRA 920 = test: MIC agar dilution, MRSA strain 38; settings: Staphylococcus aureus
Method: as §2, §3, §4, §5, §6, §7, §8, §9, §10

MRSA EMRSA 15 19972/98 = test: MIC agar dilution, MRSA strain 39; settings: Staphylococcus aureus
Method: as §2, §3, §4, §5, §6, §7, §8, §9, §10

[7] = Nakaseomyces glabratus, 22 h, 22 hrs, read-out: MIC
[8] = Nakaseomyces glabratus, 48 h, 48 hrs, read-out: MIC

Row | Compound | MIC (Candida glabrata; [7]) [µM] | MIC (Candida glabrata; [8]) [µM] | MIC (Enterococcus faecium; 22 hrs, read-out: MIC) [µM] | MIC (Enterococcus faecium; 48 hrs, read-out: MIC) [µM] | MIC ([1]; 22 hrs, read-out: MIC) [µM] | MIC ([1]; 48 hrs, read-out: MIC) [µM] | MIC (Enterococcus faecalis; 22 hrs, read-out: MIC) [µM] | MIC (Enterococcus faecalis; 48 hrs, read-out: MIC) [µM] | MIC ([2]; 22 hrs) [µM] | MIC ([2]; 48 hrs) [µM] | MIC ([3]; 22 hrs) [µM] | MIC ([3]; 48 hrs) [µM] | MIC ([4]; 22 hrs) [µM] | MIC ([4]; 48 hrs) [µM] | MIC ([5]; 22 hrs) [µM] | MIC ([5]; 48 hrs) [µM] | MIC ([6]; 22 hrs) [µM] | MIC ([6]; 48 hrs) [µM] | MIC (MRSA EMRSA 15 1729/98; 22 hrs) [µM] | MIC (MRSA EMRSA 15 1729/98; 48 hrs) [µM] | also measured
1 | CCCCCCCCCCCCCCCCO [C0, 1-Hexadecanol, reference compound] | 880 (≈ 213 µg/mL) | > 880 | > 880 | > 880 | > 880 | > 880 | > 880 | > 880 |  |  |  |  |  |  |  |  |  |  |  |  | 
2 | CCCCCCCCCCCCCOCCOCCOCCOCCOCCOCCO [C13E6, polyoxyethylene (6) tridecyl alcohol] |  |  |  |  |  |  |  |  |  |  |  |  |  |  |  |  |  |  |  |  | MIC (Candida glabrata; 22 hrs): >880 µM; MIC (Candida glabrata; 48 hrs): >880 µM; MIC (Enterococcus faecium; 22 hrs): >880 µM; MIC (Enterococcus faecium; 48 hrs): >880 µM; MIC ([1]; 22 hrs): 110 µM (≈ 51.1 µg/mL); MIC ([1]; 48 hrs): 110 µM (≈ 51.1 µg/mL); MIC (Enterococcus faecalis; 22 hrs): 110 µM (≈ 51.1 µg/mL); MIC (Enterococcus faecalis; 48 hrs): 110 µM (≈ 51.1 µg/mL)
3 | CCCCCCCCCCCCOCCO [L1, Ethylene Glycol Monododecyl Ether] | 220 (≈ 50.7 µg/mL) | 220 (≈ 50.7 µg/mL) | > 880 | > 880 | 220 (≈ 50.7 µg/mL) | 220 (≈ 50.7 µg/mL) | 440 (≈ 101 µg/mL) | 440 (≈ 101 µg/mL) | 220 (≈ 50.7 µg/mL) | 220 (≈ 50.7 µg/mL) | 220 (≈ 50.7 µg/mL) | 220 (≈ 50.7 µg/mL) | 220 (≈ 50.7 µg/mL) | 220 (≈ 50.7 µg/mL) | 220 (≈ 50.7 µg/mL) | 220 (≈ 50.7 µg/mL) | 440 (≈ 101 µg/mL) | 440 (≈ 101 µg/mL) | 220 (≈ 50.7 µg/mL) | 220 (≈ 50.7 µg/mL) | MIC (MRSA NCTC 11939; 22 hrs): 220 µM (≈ 50.7 µg/mL); MIC (MRSA NCTC 11939; 48 hrs): 220 µM (≈ 50.7 µg/mL); MIC (MRSA FRA 920; 22 hrs): 220 µM (≈ 50.7 µg/mL); MIC (MRSA FRA 920; 48 hrs): 220 µM (≈ 50.7 µg/mL); MIC (MRSA EMRSA 15 19972/98; 22 hrs): 220 µM (≈ 50.7 µg/mL); MIC (MRSA EMRSA 15 19972/98; 48 hrs): 220 µM (≈ 50.7 µg/mL)
4 | CCCCCCCCCCCCOCCOCCO [L2, Diethylene Glycol Monododecyl Ether] | 110 (≈ 30.2 µg/mL) | 110 (≈ 30.2 µg/mL) | > 880 | > 880 | 110 (≈ 30.2 µg/mL) | 110 (≈ 30.2 µg/mL) | 220 (≈ 60.4 µg/mL) | 220 (≈ 60.4 µg/mL) | 110 (≈ 30.2 µg/mL) | 110 (≈ 30.2 µg/mL) | 220 (≈ 60.4 µg/mL) | 220 (≈ 60.4 µg/mL) | 220 (≈ 60.4 µg/mL) | 220 (≈ 60.4 µg/mL) | 220 (≈ 60.4 µg/mL) | 220 (≈ 60.4 µg/mL) | 880 (≈ 242 µg/mL) | 880 (≈ 242 µg/mL) | 110 (≈ 30.2 µg/mL) | 110 (≈ 30.2 µg/mL) | MIC (MRSA NCTC 11939; 22 hrs): 55 µM (≈ 15.1 µg/mL); MIC (MRSA NCTC 11939; 48 hrs): 110 µM (≈ 30.2 µg/mL); MIC (MRSA FRA 920; 22 hrs): 110 µM (≈ 30.2 µg/mL); MIC (MRSA FRA 920; 48 hrs): 110 µM (≈ 30.2 µg/mL); MIC (MRSA EMRSA 15 19972/98; 22 hrs): 110 µM (≈ 30.2 µg/mL); MIC (MRSA EMRSA 15 19972/98; 48 hrs): 110 µM (≈ 30.2 µg/mL)
